Test results taken from patent US7176230B2, “Synthesis of indole analogs of 1-benzyl-3-(5′-hydroxymethyl-2′-furyl) indazole (YC-1) as anti-platelet agents” (Industrial Technology Research Institute, priority 2004, dated 2007).

Columns and labels:
[1] = test system: PAF-induced platelet aggregation; assay: Platelet aggregation induced by PAF (turbidimetric, washed platelet suspension); format: cell-based, rabbit; details: for IC50: rabbit platelets incubated with test compound at 37° C. for 1 min, then PAF (2 ng/mL); for inhibition of PAF-induced platelet aggregation (in words): discussion of Table 1
Description: (§1) Collagen (type 1, bovine Achilles tendon), obtained from Sigma Chemical Co., was homogenized in […] HOAc and stored at −70° C. Arachidonic acid, bovine serum albumin (BSA), EDTA (disodium salt), sodium citrate, dimethyl sulfoxide (DMSO), and platelet activating factor (PAF) were purchased from Sigma Chemical Co. Thrombin (bovine) was obtained from Parke-Davis Co. and dissolved in 50% (viv) glycerol to give a stock solution of 100 NIH units/mL.
(§2) Blood was collected from the rabbit marginal ear vein and was mixed with EDTA to a final concentration of 6 mM. It was centrifuged at 90 g for 10 min at room temperature, and the supernatant was obtained as platelet-rich plasma. The latter was further centrifuged at 500 g for 10 min. The platelet pellets were washed with Tyrode's solution without EDTA. After centrifugation at the same conditions, the platelet pellets were finally suspended in Tyrode's solution of the following composition (mM): NaCl (136.8), KCl (2.81, NaHCO3 (11.9), MgCl2 (1.1), NaH2PO4 (0.33), CaCl2 (1.0), and glucose (11.2). Platelet numbers were counted by Coulter Counter (Model ZM) and adjusted to 4.5×10^8 […].
(§3) Aggregation was measured by the turbidmetric method with a dual-channel Lumiaggregometer (Model 1020, Payton, Canada). All glassware was siliconized. One minute before the addition of the aggregation inducer, the platelet suspension was stirred at 900 rpm. The percentage of aggregation was calculated as described previously.

[2] = test system: thrombin-induced platelet aggregation; assay: Platelet aggregation induced by thrombin (turbidimetric, washed platelet suspension); format: cell-based, rabbit; details: for IC50: rabbit platelets incubated with test compound at 37° C. for 1 min, then thrombin (0.1 unit/mL); for inhibition of thrombin-induced platelet aggregation (in words): discussion of Table 1
Description: as §1, §2, §3

[3] = test system: AA-induced platelet aggregation; assay: Platelet aggregation induced by AA (turbidimetric, washed platelet suspension); format: cell-based, rabbit; details: for IC50: rabbit platelets incubated with test compound at 37° C. for 1 min, then AA (100 μM); for inhibition of AA-induced platelet aggregation (in words): discussion of Table 1
Description: as §1, §2, §3

[4] = test system: collagen-induced platelet aggregation; assay: Platelet aggregation induced by collagen (turbidimetric, washed platelet suspension); format: cell-based, rabbit; details: for IC50: rabbit platelets incubated with test compound at 37° C. for 1 min, then collagen (10 μg/mL); for inhibition of collagen-induced platelet aggregation (in words): discussion of Table 1
Description: as §1, §2, §3

[5] = test system: platelet aggregation; assay: Antiplatelet aggregation activity, overall statements over the four inducers; format: cell-based, rabbit; details: discussion of Table 1, all inducers
Description: as §1, §2, §3

[6] = Oryctolagus cuniculus, Platelet, 1 min

Row | Structure (SMILES) | IC50 [1, 6] | inhibition of PAF-induced platelet aggregation (in words) [1] | IC50 [2, 6] | IC50 [3, 6] | melting point | IC50 [4, 6] | inhibition of collagen-induced platelet aggregation (in words) [4] | IC50 [1] | inhibition of thrombin-induced platelet aggregation (in words) [2] | IC50 [2] | inhibition of AA-induced platelet aggregation (in words) [3] | IC50 [3] | anti-platelet activity overall (in words) [5] | IC50 [4]
1 | OCc1ccc(-c2cn(Cc3ccccc3)c3ccccc23)cc1 [Compound 10, N-Benzyl-3-(4-hydroxymethylphenyl)indole] | 170 µM | inhibited | > 300 µM | > 300 µM | 122 °C | 168 µM | inhibited | – | – | – | – | – | – | –
2 | COc1cccc(C(=O)n2cc(-c3ccc(CO)o3)c3ccccc32)c1 [Compound 33, N-(3′-Methoxybenzoyl)-3-(5′-hydroxymethyl-2′-furyl)indole] | – | significant inhibition | – | – | – | – | significant inhibition | 169 µM | significant inhibition | 175 µM | significant inhibition | 90.9 µM | comparable with YC-1 | 83.9 µM
3 | O=S(=O)(c1ccccc1)n1cc(-c2ccc(CO)s2)c2ccccc21 [Compound 17, N-Benzenesulfonyl-3-(5′-hydroxymethyl-2′-thienyl)indole] | – | excellent inhibitory activity | – | – | – | – | excellent inhibitory activity | 171 µM | impaired its inhibitory activity | > 300 µM | excellent inhibitory activity | 154 µM | – | 131 µM
4 | OCc1ccc(-c2nn(Cc3ccccc3)c3ccccc23)cc1 [YD-1, 1-benzyl-3-(4-hydroxymethylphenyl)indazole, reference compound] | 143 µM | – | 193 µM | 101 µM | – | 123 µM | – | – | – | – | – | – | – | –
5 | OCc1ccc(-c2cn(Cc3ccccc3)c3ccccc23)o1 [Compound 7, N-Benzyl-3-(5′-hydroxymethyl-2′-furyl)indole] | – | – | – | – | – | – | – | > 300 µM | – | > 300 µM | – | > 300 µM | nearly no anti-platelet activity | > 300 µM
6 | O=S(=O)(c1ccccc1)n1cc(-c2ccc(CO)o2)c2ccccc21 [Compound 16, N-Benzenesulfonyl-3-(5′-hydroxymethyl-2′-furyl)indole] | – | significant inhibition | – | – | – | – | significant inhibition | 164 µM | significant inhibition | 173 µM | significant inhibition | 94.9 µM | – | 73.7 µM
7 | OCc1ccc(-c2cn(Cc3ccccc3)c3ccccc23)s1 [Compound 8, N-Benzyl-3-(5′-hydroxymethyl-2′-thienyl)indole] | – | – | – | – | – | – | – | > 300 µM | – | > 300 µM | – | > 300 µM | did not improve its activity | > 300 µM
8 | O=C(c1ccccc1)n1cc(-c2ccc(CO)o2)c2ccccc21 [Compound 32, N-Benzoyl-3-(5′-hydroxymethyl-2′-furyl)indole] | – | inefficient | – | – | – | – | excellent inhibitory activity | > 300 µM | inefficient | > 300 µM | excellent inhibitory activity | 38.2 µM | – | 51.1 µM
9 | COc1ccc(C(=O)n2cc(-c3ccc(CO)o3)c3ccccc32)cc1 [Compound 34, N-(4′-Methoxybenzoyl)-3-(5′-hydroxymethyl-2′-furyl)indole] | – | poor inhibition | – | – | – | – | potent inhibition | 270 µM | poor inhibition | > 300 µM | potent inhibition | 2.9 µM | – | 30.9 µM
10 | OCc1ccc(-c2nn(Cc3ccccc3)c3ccccc23)o1 [YC-1, 1-benzyl-3-(5′-hydroxymethyl-2′-furyl)indazole] | 90 µM | – | 180 µM | 57 µM | – | 54.6 µM | – | – | – | – | – | – | – | –
